From a compilation of properties of binary mixtures (doi:10.1007/s10953-010-9562-5)

Test: xn = mol fraction of the nth substance listed
Details: 101 kPa

CC1COC(=O)O1 (configuration not stated) + CCCC[N+]1(C)CCCC1.O=S(=O)([N-]S(=O)(=O)C(F)(F)F)C(F)(F)F
x1 = 1
Details	electrical conductivity [S/m]	viscosity [mPa·s]
263.15 K	0.001	–
268.15 K	0.001	–
273.15 K	0.001	–
278.15 K	0.001	–
283.15 K	0.001	–
288.15 K	0.001	–
298.15 K	0.002	2.52
308.15 K	0.002	2.14
318.15 K	–	1.85

CCCC[N+]1(C)CCCC1.O=S(=O)([N-]S(=O)(=O)C(F)(F)F)C(F)(F)F + CC1COC(=O)O1
Details	electrical conductivity [S/m]	viscosity [mPa·s]
253.15 K, x2 = 0	0.017	–
253.15 K, x2 = 0.05	0.021	–
253.15 K, x2 = 0.16	0.032	–
253.15 K, x2 = 0.26	0.049	–
253.15 K, x2 = 0.32	0.06	–
253.15 K, x2 = 0.37	0.074	–
253.15 K, x2 = 0.42	0.09	–
253.15 K, x2 = 0.53	0.13	–
253.15 K, x2 = 0.58	0.155	–
253.15 K, x2 = 0.68	0.213	–
253.15 K, x2 = 0.74	0.243	–
253.15 K, x2 = 0.84	0.287	–
253.15 K, x2 = 0.95	0.232	–
253.15 K, x2 = 0.97	0.165	–
258.15 K, x2 = 0	0.031	–
258.15 K, x2 = 0.05	0.037	–
258.15 K, x2 = 0.11	0.043	–
258.15 K, x2 = 0.21	0.061	–
258.15 K, x2 = 0.32	0.086	–
258.15 K, x2 = 0.37	0.102	–
258.15 K, x2 = 0.42	0.121	–
258.15 K, x2 = 0.47	0.144	–
258.15 K, x2 = 0.53	0.169	–
258.15 K, x2 = 0.63	0.231	–
258.15 K, x2 = 0.68	0.266	–
258.15 K, x2 = 0.74	0.302	–
258.15 K, x2 = 0.79	0.333	–
258.15 K, x2 = 0.84	0.353	–
258.15 K, x2 = 0.89	0.344	–
258.15 K, x2 = 0.95	0.274	–
258.15 K, x2 = 0.97	0.182	–
263.15 K, x2 = 0	0.045	–
263.15 K, x2 = 0.11	0.062	–
263.15 K, x2 = 0.16	0.073	–
263.15 K, x2 = 0.21	0.086	–
263.15 K, x2 = 0.26	0.102	–
263.15 K, x2 = 0.32	0.12	–
263.15 K, x2 = 0.42	0.165	–
263.15 K, x2 = 0.47	0.193	–
263.15 K, x2 = 0.58	0.261	–
263.15 K, x2 = 0.63	0.3	–
263.15 K, x2 = 0.68	0.341	–
263.15 K, x2 = 0.74	0.381	–
263.15 K, x2 = 0.79	0.415	–
263.15 K, x2 = 0.84	0.432	–
263.15 K, x2 = 0.95	0.323	–
263.15 K, x2 = 0.97	0.232	–
268.15 K, x2 = 0	0.072	–
268.15 K, x2 = 0.05	0.082	–
268.15 K, x2 = 0.11	0.094	–
268.15 K, x2 = 0.16	0.108	–
268.15 K, x2 = 0.21	0.124	–
268.15 K, x2 = 0.26	0.143	–
268.15 K, x2 = 0.32	0.165	–
268.15 K, x2 = 0.37	0.19	–
268.15 K, x2 = 0.42	0.218	–
268.15 K, x2 = 0.47	0.251	–
268.15 K, x2 = 0.53	0.288	–
268.15 K, x2 = 0.58	0.328	–
268.15 K, x2 = 0.63	0.372	–
268.15 K, x2 = 0.74	0.461	–
268.15 K, x2 = 0.79	0.496	–
268.15 K, x2 = 0.84	0.512	–
268.15 K, x2 = 0.89	0.487	–
268.15 K, x2 = 0.95	0.377	–
268.15 K, x2 = 0.97	0.296	–
273.15 K, x2 = 0.05	0.122	–
273.15 K, x2 = 0.11	0.137	–
273.15 K, x2 = 0.16	0.154	–
273.15 K, x2 = 0.21	0.173	–
273.15 K, x2 = 0.32	0.22	–
273.15 K, x2 = 0.37	0.249	–
273.15 K, x2 = 0.47	0.316	–
273.15 K, x2 = 0.53	0.356	–
273.15 K, x2 = 0.58	0.399	–
273.15 K, x2 = 0.63	0.444	–
273.15 K, x2 = 0.68	0.491	–
273.15 K, x2 = 0.79	0.57	–
273.15 K, x2 = 0.84	0.585	–
273.15 K, x2 = 0.89	0.559	–
273.15 K, x2 = 0.95	0.445	–
273.15 K, x2 = 0.97	0.375	–
278.15 K, x2 = 0	0.152	–
278.15 K, x2 = 0.05	0.168	–
278.15 K, x2 = 0.11	0.185	–
278.15 K, x2 = 0.16	0.205	–
278.15 K, x2 = 0.21	0.228	–
278.15 K, x2 = 0.32	0.281	–
278.15 K, x2 = 0.37	0.312	–
278.15 K, x2 = 0.42	0.347	–
278.15 K, x2 = 0.47	0.385	–
278.15 K, x2 = 0.53	0.426	–
278.15 K, x2 = 0.58	0.47	–
278.15 K, x2 = 0.63	0.516	–
278.15 K, x2 = 0.68	0.562	–
278.15 K, x2 = 0.74	0.604	–
278.15 K, x2 = 0.79	0.637	–
278.15 K, x2 = 0.84	0.649	–
278.15 K, x2 = 0.89	0.621	–
278.15 K, x2 = 0.97	0.414	–
283.15 K, x2 = 0	0.193	–
283.15 K, x2 = 0.11	0.234	–
283.15 K, x2 = 0.21	0.284	–
283.15 K, x2 = 0.26	0.313	–
283.15 K, x2 = 0.32	0.346	–
283.15 K, x2 = 0.42	0.421	–
283.15 K, x2 = 0.47	0.464	–
283.15 K, x2 = 0.53	0.51	–
283.15 K, x2 = 0.63	0.606	–
283.15 K, x2 = 0.74	0.697	–
283.15 K, x2 = 0.79	0.728	–
283.15 K, x2 = 0.84	0.735	–
288.15 K, x2 = 0	0.249	–
288.15 K, x2 = 0.05	0.271	–
288.15 K, x2 = 0.11	0.295	–
288.15 K, x2 = 0.16	0.322	–
288.15 K, x2 = 0.21	0.351	–
288.15 K, x2 = 0.32	0.42	–
288.15 K, x2 = 0.37	0.459	–
288.15 K, x2 = 0.42	0.501	–
288.15 K, x2 = 0.53	0.595	–
288.15 K, x2 = 0.58	0.645	–
288.15 K, x2 = 0.63	0.696	–
288.15 K, x2 = 0.68	0.745	–
288.15 K, x2 = 0.84	0.821	–
288.15 K, x2 = 0.89	0.776	–
288.15 K, x2 = 0.95	0.63	–
288.15 K, x2 = 0.97	0.528	–
293.15 K, x2 = 0.05	0.328	70.58
293.15 K, x2 = 0.11	0.357	59.09
293.15 K, x2 = 0.16	0.388	50.53
293.15 K, x2 = 0.21	0.421	44.05
293.15 K, x2 = 0.26	0.458	38.97
293.15 K, x2 = 0.32	0.498	34.77
293.15 K, x2 = 0.37	0.542	31.1
293.15 K, x2 = 0.42	0.588	27.69
293.15 K, x2 = 0.47	0.638	24.42
293.15 K, x2 = 0.58	0.742	18.11
293.15 K, x2 = 0.63	0.794	15.13
293.15 K, x2 = 0.68	0.843	12.36
293.15 K, x2 = 0.74	0.884	9.88
293.15 K, x2 = 0.84	0.908	6.05
293.15 K, x2 = 0.89	0.853	4.71
293.15 K, x2 = 0.95	0.692	3.65
293.15 K, x2 = 0.97	0.582	–
298.15 K, x2 = 0	0.364	68.16
298.15 K, x2 = 0.05	0.394	56.05
298.15 K, x2 = 0.11	0.425	47.09
298.15 K, x2 = 0.16	0.46	40.44
298.15 K, x2 = 0.21	0.497	35.42
298.15 K, x2 = 0.26	0.538	31.51
298.15 K, x2 = 0.47	0.73	20.25
298.15 K, x2 = 0.53	0.784	17.72
298.15 K, x2 = 0.58	0.839	15.23
298.15 K, x2 = 0.68	0.942	10.56
298.15 K, x2 = 0.74	0.982	8.51
298.15 K, x2 = 0.79	1	6.74
298.15 K, x2 = 0.84	0.997	5.29
298.15 K, x2 = 0.89	0.934	4.14
298.15 K, x2 = 0.95	0.757	3.26
298.15 K, x2 = 0.97	0.628	–
303.15 K, x2 = 0	0.426	54.05
303.15 K, x2 = 0.05	0.458	44.95
303.15 K, x2 = 0.11	0.494	38.15
303.15 K, x2 = 0.16	0.532	33.05
303.15 K, x2 = 0.26	0.618	26.04
303.15 K, x2 = 0.32	0.666	23.45
303.15 K, x2 = 0.37	0.717	21.15
303.15 K, x2 = 0.47	0.828	16.91
303.15 K, x2 = 0.53	0.886	14.85
303.15 K, x2 = 0.58	0.944	12.83
303.15 K, x2 = 0.68	1.05	9.03
303.15 K, x2 = 0.79	1.11	5.9
303.15 K, x2 = 0.89	1.02	3.7
303.15 K, x2 = 0.95	0.826	2.93
303.15 K, x2 = 0.97	0.652	–
308.15 K, x2 = 0	0.505	44.38
308.15 K, x2 = 0.05	0.54	36.9
308.15 K, x2 = 0.11	0.578	31.36
308.15 K, x2 = 0.16	0.619	27.23
308.15 K, x2 = 0.21	0.663	24.11
308.15 K, x2 = 0.26	0.711	21.64
308.15 K, x2 = 0.32	0.762	19.59
308.15 K, x2 = 0.42	0.872	16.04
308.15 K, x2 = 0.47	0.931	14.35
308.15 K, x2 = 0.53	0.992	12.68
308.15 K, x2 = 0.58	1.05	11.01
308.15 K, x2 = 0.63	1.11	9.39
308.15 K, x2 = 0.68	1.16	7.85
308.15 K, x2 = 0.74	1.2	6.44
308.15 K, x2 = 0.79	1.22	5.2
308.15 K, x2 = 0.84	1.2	4.17
308.15 K, x2 = 0.89	1.11	3.34
308.15 K, x2 = 0.95	0.892	2.68
308.15 K, x2 = 0.97	0.691	–
313.15 K, x2 = 0	0.57	35.76
313.15 K, x2 = 0.05	0.611	30.14
313.15 K, x2 = 0.11	0.654	25.92
313.15 K, x2 = 0.16	0.701	22.74
313.15 K, x2 = 0.26	0.803	18.29
313.15 K, x2 = 0.37	0.916	15.11
313.15 K, x2 = 0.42	0.975	13.68
313.15 K, x2 = 0.53	1.1	10.88
313.15 K, x2 = 0.58	1.16	9.5
313.15 K, x2 = 0.63	1.21	8.15
313.15 K, x2 = 0.68	1.26	6.87
313.15 K, x2 = 0.74	1.29	5.69
313.15 K, x2 = 0.89	1.18	3.02
313.15 K, x2 = 0.95	0.946	2.45
318.15 K, x2 = 0.11	–	21.73
318.15 K, x2 = 0.16	–	19.16
318.15 K, x2 = 0.21	–	17.18
318.15 K, x2 = 0.26	–	15.58
318.15 K, x2 = 0.32	–	14.22
318.15 K, x2 = 0.37	–	12.99
318.15 K, x2 = 0.42	–	11.81
318.15 K, x2 = 0.53	–	9.47
318.15 K, x2 = 0.58	–	8.3
318.15 K, x2 = 0.63	–	7.16
318.15 K, x2 = 0.68	–	6.06
318.15 K, x2 = 0.74	–	5.05
318.15 K, x2 = 0.79	–	4.16
318.15 K, x2 = 0.84	–	3.39
318.15 K, x2 = 0.95	–	2.26
